# Values quoted from earlier work, collected in US20140271866A1, “TRANSDERMAL DRUG DELIVERY SYSTEM CONTAINING RIVASTIGMINE” (priority 2013, published 2014).
# Conditions: in vivo
smiles,measurement,value
"CCN(C)C(=O)Oc1cccc([C@H](C)N(C)C)c1 [Rivastigmine, rivastigmine]",half-life,about 1.5 hours
